Tests used:
[1] = in vitro; conditions: human, MRC5 SV2 cells
Description: Selectivity index, ratio of IC50 for human MRC5 SV2 cells to IC50 for Trypanosoma brucei rhodesiense STIB900 trypomastigotes

[2] = test system: Trypanosoma cruzi; test: microbe, parasite or virus in culture; conditions: Tulahuen CL2, MRC-5 SV2, 168 h
Description: Antitrypanosomal activity against Trypanosoma cruzi Tulahuen CL2 amastigotes infected in human MRC5 SV2 cells incubated for 7 days by chlorophenol red beta-D-galactopyranoside substrate based spectrophotometric assay

[3] = in vitro; conditions: mouse, liver microsomes
Description: Metabolic stability in mouse liver microsomes assessed as intrinsic clearance at 0.5 uM incubated for 30 mins by LC-MS/MS analysis

[4] = in vitro; conditions: human, MRC5 SV2 cells; remark: listed apart in the source
Description: Selectivity index, ratio of IC50 for human MRC5 SV2 cells to IC50 for Trypanosoma cruzi Tulahuen CL2 amastigotes infected in human MRC5 SV2 cells

[5] = in vitro; conditions: mouse, liver microsomes; remark: listed apart in the source
Description: Metabolic stability in mouse liver microsomes assessed as fraction unbound at 0.5 uM incubated for 30 mins by LC-MS/MS analysis

[6] = in vitro; conditions: PAMPA
Description: Effective permeability of compound by PAMPA assay

[7] = physchem; conditions: buffer, pH 7.4
Description: Lipophilicity, logD of compound at pH 7.4 by HPLC analysis

[8] = cells; conditions: Homo sapiens, MRC-5 SV2, 72 h
Description: (§1) Cytotoxicity against human MRC5 SV2 cells assessed as reduction in cell viability incubated for 3 days by fluorimetry

[9] = in vitro; conditions: human, MRC5 SV2 cells; remark: listed apart in the source
Description: as §1

[10] = test system: Macrophage; test: cells; conditions: Mus musculus, 72 h
Description: (§2) Cytotoxicity against mouse peritoneal Macrophage cells assessed as reduction in cell viability incubated for 3 days by fluorimetry

[11] = test system: Leishmania infantum; test: microbe, parasite or virus in culture; conditions: for IC50: MHOM/MA(BE)/67/ITMAP263, 120 h; for IC90: MHOM/MA(BE)/67/ITMAP263, in Mus musculus, 120 h
Description: Antileishmanial activity against amastigote stage of Leishmania infantum MHOM/MA(BE)/67/ITMAP263 infected in mouse peritoneal macrophage assessed as parasite growth inhibition incubated for 5 days by Giemsa staining based assay

[12] = test system: Trypanosoma brucei rhodesiense; test: microbe, parasite or virus in culture; conditions: STIB900, 72 h
Description: Antiprotozoal activity against Trypanosoma brucei rhodesiense STIB900 trypomastigotes incubated for 72 hrs by resazurin dye based fluorimetric analysis

[13] = in vitro; conditions: human, liver microsomes
Description: Metabolic stability in human liver microsomes assessed as intrinsic clearance at 0.5 uM incubated for 30 mins by LC-MS/MS analysis

[14] = in vitro; conditions: mouse, peritoneal macrophages
Description: as §2

[15] = test system: Trypanosoma brucei; test: microbe, parasite or virus in culture; conditions: Squib 427, 72 h
Description: Antitrypanosomal activity against Trypanosoma brucei Squib 427 assessed as reduction in parasite growth incubated for 72 hrs by resazurin dye based fluorimetric analysis

[16] = in vitro; conditions: mouse, peritoneal macrophages; remark: listed apart in the source
Description: Selectivity index, ratio of IC50 for mouse peritoneal macrophage to IC50 for Leishmania infantum MHOM/MA(BE)/67/ITMAP263 infected in mouse peritoneal macrophage

Compound	selectivity ratio [1]	IC50 [2]	IC90 [2]	CLint scaled at 0.5 h, 0.5 µM [3]	microsomal CLint at 0.5 h, 0.5 µM [3]	fraction unbound at 0.5 h, 0.5 µM [5]	Papp [6]	logD [7]	IC50 [8]	IC90 at 72 h [9]	IC50 [10]	IC50 [11]	IC90 [11]	IC50 [12]	IC90 [12]	CLint scaled at 0.5 h, 0.5 µM [13]	microsomal CLint at 0.5 h, 0.5 µM [13]	IC90 at 72 h [14]	IC50 [15]	IC90 [15]	further results
O=C(c1ccc(F)cc1)N1CCCC(c2cc3nc(N4CCCC4)ccc3[nH]2)C1 (stereo not given)	6.07	8.33 µM	31 µM	1960 to 2410 mL/min/kg	441 to 444 µL/min/mg	0.586 to 0.722	0.152 to 0.228 ×10⁻⁶ cm/s	3.45	48.7 µM	64 µM	45.3 µM	41.8 µM	59.6 µM	8.03 µM	14.1 µM	92.5 mL/min/kg	50.1 µL/min/mg	59.7 µM	43.4 µM	60.8 µM	selectivity ratio [4]: 5.86
O=C(c1cc(C2CC2)no1)N1CCCC(c2cc3ncccc3[nH]2)C1 (stereo not given)	1.56	4.05 µM	13.8 µM	1610 mL/min/kg	467 µL/min/mg	0.926	3.17 ×10⁻⁶ cm/s	2.86	64 µM	64 µM	64 µM	37.1 µM	64 µM	41.9 µM	64 µM	39.5 mL/min/kg	33.8 µL/min/mg	64 µM	64 µM	64 µM	selectivity ratio [4]: 15.8; selectivity ratio [16]: 1.73
O=C(c1cc(C(F)(F)F)no1)N1CCCC(c2cc3ncccc3[nH]2)C1 (stereo not given)	1.61	4.08 µM	45.3 µM	2330 mL/min/kg	449 µL/min/mg	0.615	3.45 ×10⁻⁶ cm/s	3.42	64 µM	64 µM	64 µM	64 µM	64 µM	40.4 µM	60.9 µM	323 mL/min/kg	184 µL/min/mg	64 µM	64 µM	64 µM	selectivity ratio [4]: 15.7
O=C(c1cc(C(F)(F)F)no1)N1CCCC(c2cc3ncc(Br)cc3[nH]2)C1 (stereo not given)	2.8	64 µM	64 µM	2800 mL/min/kg	431 µL/min/mg	0.491	7.99 ×10⁻⁶ cm/s	4.27	64 µM	64 µM	64 µM	57 µM	64 µM	22.9 µM	62.7 µM	193 mL/min/kg	87.8 µL/min/mg	64 µM	64 µM	64 µM	
CC(C)(C)c1cc(C(=O)N2CCCC(c3cc4ncccc4[nH]3)C2)on1 (stereo not given)	1.83	2.18 µM	64 µM	2150 mL/min/kg	403 µL/min/mg	0.598	2.97 ×10⁻⁶ cm/s	3.4	64 µM	64 µM	64 µM	64 µM	64 µM	34.7 µM	64 µM	321 mL/min/kg	177 µL/min/mg	64 µM	64 µM	64 µM	selectivity ratio [4]: 29.4
O=C(c1ccc(F)cc1)N1CCCC(c2cc3nc(C(F)(F)F)ccc3[nH]2)C1 (stereo not given)	2.19	64 µM	64 µM	1110 mL/min/kg	247 µL/min/mg	0.713	12.2 ×10⁻⁶ cm/s	3.88	64 µM	64 µM	64 µM	64 µM	64 µM	28.7 µM	57.5 µM	118 mL/min/kg	77.6 µL/min/mg	64 µM	64 µM	64 µM	
O=C(c1ccccc1)N1CCCC(c2cc3ncccc3[nH]2)C1 (stereo not given)	1.7	8.5 to 9.02 µM	31.1 to 45.3 µM	2360 mL/min/kg	508 µL/min/mg		2.88 ×10⁻⁶ cm/s	2.68	64 µM	64 µM	64 µM	64 µM	64 µM	38.3 to 64 µM	64 µM	38.8 mL/min/kg	24.7 µL/min/mg	64 µM	64 µM	64 µM	selectivity ratio [4]: 7.13 to 7.5

From ChEMBL document CHEMBL4342426, “Structure-activity relationship of 4-azaindole-2-piperidine derivatives as agents against Trypanosoma cruzi” (Bioorg Med Chem Lett, 2020)
